Results as given in patent publication US11214563B2 (JANSSEN PHARMACEUTICA NV, priority 2019, dated 2022).

What follows are compounds tested against human GluN1/GluN2B NMDA receptors (Homo sapiens (Human), UniProt Q05586+Q13224) (assay: Cell-based calcium flux (FLIPR) assay on cloned human NR1/NR2B ion channels expressed in mammalian cells). Conditions: standard assay, glutamate ~EC40, 10 μM glycine.
Experimental: (§1) Effects of Test Articles on Cloned Human NR1/NR2B Ion Channels Expressed in Mammalian Cells
(§2) NMDA receptors are ion channels that are highly permeable to Ca^2+ ions, rendering it possible to monitor NMDA receptor function using cell-based calcium flux assay. In this assay, co-agonists glutamate and glycine are added to cells heterologously expressing human GluN1/GluN2B NMDA receptors to initiate cellular Ca^2+ influx. The time course of the changes in intracellular calcium is measured using a fluorescent dye and a FLIPR (Fluorometric Imaging Plate Reader) device.
(§3) Twenty four hours before measurements, the expression of the NMDA receptors in the stable cell line is induced with Tet-On inducible system in the presence of a non-selective NMDA receptor blocker. On the day of the experiment, cell culture media is carefully washed and the cells are loaded with Calcium 5 Dye Kit (Molecular Devices) in dye loading buffer containing 137 mM NaCl, 4 mM KCl, 2 mM CaCl2), 0.5 mM MgCl2(standard assay) or 1.5 mM MgCl2 (HTS assay), 10 mM HEPES and 5 mM D-glucose; pH 7.4. After 1 h incubation at the room temperature, the dye is washed away with the assay buffer (137 mM NaCl (standard assay) or 150 mM (HTS assay), 4 mM KCl (standard assay) or 3 mM (HTS assay), 2 mM CaCl2), 0.01 mM EDTA, 10 mM HEPES and 5 mM D-glucose; pH 7.4) In the FLIPR TETRA reader, various concentrations of the test compounds are added to the cells for 5 min while fluorescence is monitored to detect potential agonist activity. Next, co-agonists, glutamate and glycine are added for another 5 minutes. The concentration of glutamate corresponding to ˜EC40 (standard assay) or EC40 (HTS assay) is used to maximize the assay's signal window and ability to detect NMDA receptor antagonists and negative allosteric modulators. A saturating concentration (10 μM) of glycine is also present in the assay. A non-selective NMDA receptor antagonist, (+)MK-801 is used as a positive control for antagonist activity. The fluorescent signal in the presence of test compounds is quantified and normalized to the signal defined by the appropriate control wells.

Sequence of human GluN1/GluN2B NMDA receptors (Homo sapiens (Human), UniProt Q05586+Q13224) (Q13224 27-1484, other chains not shown): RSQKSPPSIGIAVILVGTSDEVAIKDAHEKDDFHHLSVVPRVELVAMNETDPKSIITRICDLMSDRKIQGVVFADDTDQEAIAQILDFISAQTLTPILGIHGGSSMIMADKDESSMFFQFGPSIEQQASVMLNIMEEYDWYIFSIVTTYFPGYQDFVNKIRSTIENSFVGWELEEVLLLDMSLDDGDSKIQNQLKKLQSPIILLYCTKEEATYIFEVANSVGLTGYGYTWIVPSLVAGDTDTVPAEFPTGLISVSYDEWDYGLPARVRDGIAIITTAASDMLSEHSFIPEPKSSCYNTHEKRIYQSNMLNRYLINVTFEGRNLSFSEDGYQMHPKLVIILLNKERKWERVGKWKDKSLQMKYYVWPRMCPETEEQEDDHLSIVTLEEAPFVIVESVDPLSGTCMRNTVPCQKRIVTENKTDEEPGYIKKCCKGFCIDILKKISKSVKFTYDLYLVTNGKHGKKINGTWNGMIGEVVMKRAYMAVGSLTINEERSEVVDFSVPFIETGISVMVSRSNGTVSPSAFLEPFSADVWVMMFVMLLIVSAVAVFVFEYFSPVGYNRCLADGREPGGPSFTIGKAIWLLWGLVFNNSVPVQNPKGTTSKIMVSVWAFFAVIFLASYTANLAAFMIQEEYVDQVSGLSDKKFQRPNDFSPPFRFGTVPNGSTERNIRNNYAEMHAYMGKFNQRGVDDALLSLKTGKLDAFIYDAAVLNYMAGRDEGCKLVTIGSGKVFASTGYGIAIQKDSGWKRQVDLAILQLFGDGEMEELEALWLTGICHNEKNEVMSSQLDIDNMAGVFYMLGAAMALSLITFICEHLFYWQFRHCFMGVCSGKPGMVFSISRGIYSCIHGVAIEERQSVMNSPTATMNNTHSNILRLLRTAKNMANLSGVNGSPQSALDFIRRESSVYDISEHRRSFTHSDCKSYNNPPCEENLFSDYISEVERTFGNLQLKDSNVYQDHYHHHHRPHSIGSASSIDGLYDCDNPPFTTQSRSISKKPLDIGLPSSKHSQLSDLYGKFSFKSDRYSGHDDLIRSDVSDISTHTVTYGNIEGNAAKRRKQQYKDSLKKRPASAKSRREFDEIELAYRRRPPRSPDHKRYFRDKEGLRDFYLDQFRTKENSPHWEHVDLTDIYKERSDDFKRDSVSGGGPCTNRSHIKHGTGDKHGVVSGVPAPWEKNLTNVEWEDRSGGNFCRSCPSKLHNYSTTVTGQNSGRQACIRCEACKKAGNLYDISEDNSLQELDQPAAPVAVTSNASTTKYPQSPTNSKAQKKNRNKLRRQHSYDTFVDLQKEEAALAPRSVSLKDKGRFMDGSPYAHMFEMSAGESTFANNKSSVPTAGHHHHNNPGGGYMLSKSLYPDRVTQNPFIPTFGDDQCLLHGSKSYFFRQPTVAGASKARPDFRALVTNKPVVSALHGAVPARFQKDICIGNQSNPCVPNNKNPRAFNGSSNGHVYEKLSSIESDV

Compound | IC50 [nM]
CCC(=O)Cn1ncc2ncc(-c3ccc(F)c(C(F)F)c3)nc21 [Example 1, 1-[6-[3-(Difluoromethyl)-4-fluoro-phenyl]pyrazolo[3,4-b]pyrazin-1-yl]butan-2-one] | 22
O=C(Cn1ncc2ncc(-c3ccc(Cl)c(OC(F)F)c3)nc21)C1CC1 [Example 2, 2-[6-[4-Chloro-3-(difluoromethoxy)phenyl]pyrazolo[3,4-b]pyrazin-1-yl]-1-cyclopropyl-ethanone] | 81
CN(C)C(=O)Cn1ncc2ncc(-c3ccc(C(F)(F)F)s3)nc21 [Example 3, N,N-Dimethyl-2-[6-[5-(trifluoromethyl)-2-thienyl]pyrazolo[3,4-b]pyrazin-1-yl]acetamide] | 581
Cc1cccc(-c2cnc3cnn(CC(=O)N(C)C)c3n2)c1 [Example 4, N,N-Dimethyl-2-[6-(m-tolyl)pyrazolo[3,4-b]pyrazin-1-yl]acetamide] | 410
CN(C)C(=O)Cn1ncc2ncc(-c3ccc(Cl)c(F)c3)nc21 [Example 5, 2-[6-(4-Chloro-3-fluoro-phenyl)pyrazolo[3,4-b]pyrazin-1-yl]-N,N-dimethyl-acetamide] | 827
Cc1ccc(-c2cnc3cnn(CC(=O)N(C)C)c3n2)cc1F [Example 6, 2-[6-(3-Fluoro-4-methyl-phenyl)pyrazolo[3,4-b]pyrazin-1-yl]-N,N-dimethyl-acetamide] | 916

These compounds were tested against human GluN1/GluN2B NMDA receptors (Homo sapiens (Human), UniProt Q13224) in the same assay as above. Conditions: standard assay, glutamate ~EC40, 10 μM glycine.
Sequence of human GluN1/GluN2B NMDA receptors (Homo sapiens (Human), UniProt Q13224) (Q13224 27-1484, other chains not shown): as above
Experimental: as §1, §2, §3

Compound | IC50 [nM]
Cc1cc(-c2cnc3cnn(CC(=O)N(C)C)c3n2)ccc1Cl [Example 7] | 117
Cc1cc(-c2cnc3cnn(CC(=O)N(C)C)c3n2)ccc1Cl [Example 8] | 134
COc1ccc(-c2cnc3cnn(CC(=O)N(C)C)c3n2)cc1Cl [Example 9, 2-[6-(3-Chloro-4-methoxy-phenyl)pyrazolo[3,4-b]pyrazin-1-yl]-N,N-dimethyl-acetamide] | 584
CN(C)C(=O)Cn1ncc2ncc(-c3ccc(F)c(C(C)(F)F)c3)nc21 [Example 13, 2-[6-[3-(1,1-Difluoroethyl)-4-fluoro-phenyl]pyrazolo[3,4-b]pyrazin-1-yl]-N,N-dimethyl-acetamide] | 146
CN(C)C(=O)Cn1ncc2ncc(-c3ccc(Cl)c(C(C)(F)F)c3)nc21 [Example 14, 2-[6-[4-Chloro-3-(1,1-difluoroethyl)phenyl]pyrazolo[3,4-b]pyrazin-1-yl]-N,N-dimethyl-acetamide] | 149
CN(C)C(=O)Cn1ncc2ncc(-c3ccc(Cl)c(C(F)(F)F)c3)nc21 [Example 15, 2-[6-[4-Chloro-3-(trifluoromethyl)phenyl]pyrazolo[3,4-b]pyrazin-1-yl]-N,N-dimethyl-acetamide] | 272
CN(C)C(=O)Cn1ncc2ncc(-c3ccc(OC(F)F)c(F)c3)nc21 [Example 17, 2-[6-[4-(Difluoromethoxy)-3-fluoro-phenyl]pyrazolo[3,4-b]pyrazin-1-yl]-N,N-dimethyl-acetamide] | 859
CN(C)C(=O)Cn1ncc2ncc(-c3ccc(OC(F)(F)F)c(Cl)c3)nc21 [Example 19, 2-[6-[3-Chloro-4-(trifluoromethoxy)phenyl]pyrazolo[3,4-b]pyrazin-1-yl]-N,N-dimethyl-acetamide] | 1040
Cc1c(F)ccc(-c2cnc3cnn(CC(=O)N(C)C)c3n2)c1F [Example 21, 2-[6-(2,4-Difluoro-3-methyl-phenyl)pyrazolo[3,4-b]pyrazin-1-yl]-N,N-dimethyl-acetamide] | 34
CN(C)C(=O)Cn1ncc2ncc(-c3ccc(F)c(F)c3F)nc21 [Example 23, N,N-Dimethyl-2-[6-(2,3,4-trifluorophenyl)pyrazolo[3,4-b]pyrazin-1-yl]acetamide] | 962
CC(F)(F)c1cc(-c2cnc3cnn(CC(=O)N4CCC4)c3n2)ccc1Cl [Example 26, 1-(Azetidin-1-yl)-2-[6-[4-chloro-3-(1,1-difluoroethyl)phenyl]pyrazolo[3,4-b]pyrazin-1-yl]ethanone] | 140
O=C(Cn1ncc2ncc(-c3ccc(Cl)c(OC(F)F)c3)nc21)N1CCC1 [Example 29, 1-(Azetidin-1-yl)-2-[6-[4-chloro-3-(difluoromethoxy)phenyl]pyrazolo[3,4-b]pyrazin-1-yl]ethanone] | 69
CC1CN(C(=O)Cn2nc(F)c3ncc(-c4ccc(F)c(C(F)F)c4)nc32)C1 [Example 31, 2-[6-[3-(Difluoromethyl)-4-fluoro-phenyl]-3-fluoro-pyrazolo[3,4-b]pyrazin-1-yl]-1-(3-methylazetidin-1-yl)ethanone] | 196
O=C(Cn1nc(F)c2ncc(-c3ccc(F)c(C(F)F)c3)nc21)N1CC(F)C1 [Example 33, 2-[6-[3-(Difluoromethyl)-4-fluoro-phenyl]-3-fluoro-pyrazolo[3,4-b]pyrazin-1-yl]-1-(3-fluoroazetidin-1-yl)ethanone] | 77
CC1CN(C(=O)Cn2ncc3ncc(-c4ccc(Cl)c(C(C)(F)F)c4)nc32)C1 [Example 34, 2-[6-[4-Chloro-3-(1,1-difluoroethyl)phenyl]pyrazolo[3,4-b]pyrazin-1-yl]-1-(3-methylazetidin-1-yl)ethanone] | 408
CC(F)(F)c1cc(-c2cnc3cnn(CC(=O)N4CC(F)C4)c3n2)ccc1Cl [Example 35, 2-[6-[4-Chloro-3-(1,1-difluoroethyl)phenyl]pyrazolo[3,4-b]pyrazin-1-yl]-1-(3-fluoroazetidin-1-yl)ethanone] | 212
CC1CN(C(=O)Cn2ncc3ncc(-c4ccc(F)c(OC(F)F)c4)nc32)C1 [Example 36, 2-[6-[3-(Difluoromethoxy)-4-fluoro-phenyl]pyrazolo[3,4-b]pyrazin-1-yl]-1-(3-methylazetidin-1-yl)ethanone] | 251
CC(F)(F)c1cc(-c2cnc3cnn(CC(=O)N4CCOCC4)c3n2)ccc1Cl [Example 38, 2-[6-[4-Chloro-3-(1,1-difluoroethyl)phenyl]pyrazolo[3,4-b]pyrazin-1-yl]-1-morpholino-ethanone] | 1060
Cc1nnc(Cn2ncc3ncc(-c4ccc(F)c(C(F)F)c4)nc32)s1 [Example 39, 2-[[6-[3-(Difluoromethyl)-4-fluoro-phenyl]pyrazolo[3,4-b]pyrazin-1-yl]methyl]-5-methyl-1,3,4-thiadiazole] | 162
Cc1cc(Cn2ncc3ncc(-c4ccc(F)c(C(F)F)c4)nc32)on1 [Example 41, 5-[[6-[3-(Difluoromethyl)-4-fluoro-phenyl]pyrazolo[3,4-b]pyrazin-1-yl]methyl]-3-methyl-isoxazole] | 337
Fc1cncc(Cn2ncc3ncc(-c4ccc(F)c(C(F)F)c4)nc32)c1 [Example 42, 6-[3-(Difluoromethyl)-4-fluoro-phenyl]-1-[(5-fluoro-3-pyridyl)methyl]pyrazolo[3,4-b]pyrazine] | 79
Fc1ccc(-c2cnc3cnn(Cc4cncc(Cl)c4)c3n2)cc1C(F)F [Example 43, 1-[(5-Chloro-3-pyridyl)methyl]-6-[3-(difluoromethyl)-4-fluoro-phenyl]pyrazolo[3,4-b]pyrazine] | 250
COc1cncc(Cn2ncc3ncc(-c4ccc(F)c(C(F)F)c4)nc32)c1 [Example 44, 6-[3-(Difluoromethyl)-4-fluoro-phenyl]-1-[(5-methoxy-3-pyridyl)methyl]pyrazolo[3,4-b]pyrazine] | 165
N#Cc1cncc(Cn2nc(F)c3ncc(-c4ccc(F)c(C(F)F)c4)nc32)c1 [Example 46, 5-[[6-[3-(Difluoromethyl)-4-fluoro-phenyl]-3-fluoro-pyrazolo[3,4-b]pyrazin-1-yl]methyl]pyridine-3-carbonitrile] | 709
Fc1ccc(-c2cnc3cnn(Cc4cncc(Cl)c4)c3n2)cc1OC(F)F [Example 47, 1-[(5-Chloro-3-pyridyl)methyl]-6-[3-(difluoromethoxy)-4-fluoro-phenyl]pyrazolo[3,4-b]pyrazine] | 284
CN(C)C(=O)Cn1ncc2ncc(-c3ccc(Cl)cc3F)nc21 [Example 48, 2-(6-(4-Chloro-2-fluorophenyl)-1H-pyrazolo[3,4-b]pyrazin-1-yl)-N,N-dimethylacetamide] | 2810
CN(C)C(=O)Cn1ncc2ncc(-c3ccc(OC(F)(F)F)cc3)nc21 [Example 49, N,N-Dimethyl-2-(6-(4-(trifluoromethoxy)phenyl)-1H-pyrazolo[3,4-b]pyrazin-1-yl)acetamide] | 2740
CN(C)C(=O)Cn1ncc2ncc(-c3cc(F)ccc3F)nc21 [Example 50, 2-(6-(2,5-Difluorophenyl)-1H-pyrazolo[3,4-b]pyrazin-1-yl)-N,N-dimethylacetamide] | > 3000
COc1cncc(Cn2ncc3ncc(-c4ccc(F)c(OC(F)F)c4)nc32)c1 [Example 52, 6-(3-(Difluoromethoxy)-4-fluorophenyl)-1-((5-methoxypyridin-3-yl)methyl)-1H-pyrazolo[3,4-b]pyrazine] | 3770
